Experiment in all cases: DTP human tumour cell line panel, 48 h
Assay [1] deals with 786-0 renal.
For assay [2], the system named is HS 578T breast.
In assay [3] the test system is SNB-75 CNS.
Assay [4] has as its system A549 NSCLC.
In assay [5] the test system is PC-3 prostate.
Assay [6] has as its system OVCAR-5 ovarian.
Assay [7] deals with RXF 393 renal.
For assay [8], the system named is MALME-3M melanoma.
Assay [9] has as its system SW-620 colon.
Assay [10] deals with MCF7 breast.

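Results reflect a 48-hour exposure of cells in 96-well plates to compound at five concentrations. Abbreviation: GI50, concentration required for 50% inhibition of growth. TGI marks complete inhibition of growth.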 Bounds are passed on as bounds.

Turning to `CCCCNCC(=O)O[C@]1(CC)C(=O)OCc2c1cc1n(c2=O)Cc2cc3ccccc3nc2-1`, the TGI in assay [1] was 0.946 µM; in [2] it was > 100 µM; in assay [3], 3.44 µM; in assay [4] it was 26.7 µM; in assay [5] it was > 100 µM; in assay [6] it was 5.95 µM. Also, the values for the TGI in assay [7] and in assay [8] were 2.15 µM and 30.5 µM, respectively.

For `O=C1C(=O)N(c2ccc(Cl)c(Cl)c2)C(=O)C(=O)C1c1nc2ccccc2s1`, the TGI in assay [1], in [9], in assay [3], in assay [4], in [6] and in [7] was > 100 µM in each case. For the same compound, the TGI in assay [8] was > 100 µM.

`CC(=O)OC1CCn2nnc(CO[Si](C)(C)C(C)(C)C)c21` (stereo not drawn): the TGI in assay [1], in [9], in [3], in [4], in assay [6] and in assay [7] was > 100 µM in each case. Besides, the TGI in assay [8] was > 100 µM.

Take `CCOC(=O)C(=O)Nc1c(CC)cccc1C(C)C`: the TGI in [1], in assay [9], in assay [3], in assay [4], in assay [6] and in [7] was > 100 µM each time. In assay [8], the TGI was > 100 µM.

With `O=C1OC(CCCl)(c2ccccc2)CC1CN1CCOCC1` (stereo not drawn), the concentration for total growth inhibition (TGI) in assay [1] was 24.4 µM; in [9] it was 39.2 µM; in assay [3], 51.7 µM; in assay [4], > 100 µM; in assay [6], > 100 µM; in assay [7], 30.9 µM. For the same compound, the TGI in assay [8] was determined as 33.5 µM.

Take `CCOC(=O)c1oc2ccc(OC)c3c2c1CCC3`: the TGI in assay [1], in assay [9], in assay [3], in [4], in assay [6] and in assay [7] was > 100 µM throughout. Also, the TGI in assay [8] was > 100 µM.

Take `COc1cc2c(c(OC)c1OC)-c1ncc3cc(OC)c(OC)c(OC)c3c1C2`: the GI50 in assay [1] was 35.9 µM; in [9] it was 32.4 µM; in [2], 29.7 µM; in assay [3], 54.5 µM; in [4], 20.3 µM; in assay [5], 44.2 µM. For the same compound, the GI50 is 22.5 µM in assay [6] and 11.2 µM in [7]. In addition, the TGI in assay [1] was > 100 µM; in assay [9] it was 98.7 µM; in [2], 65.6 µM; in assay [3], > 100 µM; in assay [4], > 100 µM; in [5] it was > 100 µM. Further, the TGI in [6] was > 100 µM; in [7], 33.1 µM.

For the compound `COc1cc(C(=O)C/C(CCC(=O)Nc2ccccc2[N+](=O)[O-])=N\NC(=O)CC#N)ccc1O`, the TGI in assay [1], in assay [9], in assay [3], in assay [4], in [6] and in [7] was > 100 µM in each case. Besides, the total growth inhibition concentration (TGI) in assay [8] was > 100 µM.

In the case of `CCOC(=O)C1Oc2ccc([N+](=O)[O-])c3c2C1(O)CCC3` (stereo not drawn), the TGI in assay [1], in assay [9], in assay [3], in assay [4], in assay [6] and in [7] was > 100 µM throughout. The TGI in [8] is > 100 µM.

`O=C1c2ccccc2-c2c1c1ccc([N+](=O)[O-])cc1c(=O)n2CCCBr`: the GI50 is > 100 µM in assay [1]; 5.26 µM in assay [9]; > 100 µM in assay [3]; > 100 µM in [4]; > 100 µM in assay [5]; > 100 µM in assay [6]. In addition, the 50% growth inhibitory concentration (GI50) was 0.153 µM in assay [10], > 100 µM in [7] and > 100 µM in [8]. Further, the TGI in assay [1], in [9], in assay [3], in assay [4], in [5] and in [6] was > 100 µM throughout. In addition, the TGI in assay [10], in assay [7] and in assay [8] was > 100 µM each time.

With `Cc1ccc(-c2cc(-c3ccc(C)cc3)nc(NCCNc3ccnc4cc(Cl)ccc34)n2)cc1`, the GI50 in [1] was 1.79 µM; in assay [9] it was 1.71 µM; in [3], 1.48 µM; in assay [4], 1.74 µM; in assay [6] it was 1.65 µM; in [10], 1.75 µM. The GI50 in assay [8] was 1.82 µM. For the same compound, the TGI in assay [1] was determined as 3.67 µM; in assay [9], 3.49 µM; in [3], 3.02 µM; in assay [4] it was 3.53 µM; in assay [6], 3.07 µM; in [10], 3.64 µM. For the same compound, in assay [8], the TGI was 3.52 µM.

In the case of `CCOC(=O)C1=C(NC)OC/C1=N\NC(=O)c1ccccc1O`, the TGI in assay [1], in [9], in assay [3], in [4], in assay [6] and in assay [7] was > 100 µM throughout. In assay [8], the TGI is > 100 µM.

On to `CCOc1ccc2nc(NC(=O)c3c/c(=N\NC(=O)C[N+](C)(C)C)c4ccc(O)cc4o3)sc2c1`, for which the TGI in assay [1] worked out at 10.9 µM; in assay [9] it was 5.28 µM; in assay [3] it was 3.53 µM; in [4], 7.84 µM; in [6], 7.3 µM; in [7] it was 14.4 µM. Also, in assay [8], the TGI amounted to 2.56 µM.

Regarding `O=C(C1CCCCC1)[C@@H]1[C@]2(C(=O)NC3CCCCC32)[C@@H]2CCCN2[C@@]12C(=O)NC1CCC(Cl)CC12` (stereo partly drawn), the GI50 in assay [1] is 151 µM; in assay [9] it was 98.6 µM; in assay [2], 153 µM; in assay [3], 58.1 µM; in assay [4] it was 135 µM; in [6], 149 µM. The GI50 in assay [10] was 41.8 µM; in assay [7], 113 µM; in [8] it was 132 µM. In addition, the TGI was found to be 319 µM in assay [1]; 238 µM in assay [9]; 422 µM in [2]; 256 µM in [3]; 379 µM in assay [4]; 284 µM in assay [6]. For the same compound, the TGI in assay [10] stood at 185 µM; in [7] it was 301 µM; in assay [8], 330 µM.

Regarding `CCCCCCCCCCCC(=O)OCCOCCOCCOCCOCCOCc1ccc(OC)cc1`, the TGI in assay [1], in assay [9], in [3], in [4], in [6] and in assay [7] was > 100 µM each time. Also, the TGI in [8] is > 100 µM.

Consider `Cn1c2c(cc(S(=O)(=O)c3ccccc3)c1=O)CCc1c-2cnn1-c1ccc(Cl)cc1`, for which the GI50 in assay [1] is 2.49 µM; in assay [2], 2.72 µM; in assay [3] it was 1.93 µM; in assay [6] it was 3.37 µM; in assay [10], 4.59 µM; in assay [7], 1.9 µM. Besides, the TGI in assay [1] was 5.51 µM; in assay [2] it was 7.61 µM; in assay [3] it was 4.02 µM; in assay [6], > 100 µM; in [10], > 100 µM; in assay [7] it was 3.71 µM.

Regarding `COC1CC(OS(=O)(=O)c2ccc(C)cc2)C(OC(=O)c2ccccc2)C(C)O1` (stereo not drawn), the GI50 in assay [1] was > 100 µM; in assay [9], > 100 µM; in assay [3], > 10 µM; in [4] it was > 100 µM; in assay [6] it was > 100 µM; in [7] it was > 10 µM. In assay [8], the GI50 is > 100 µM. The TGI in [1], in assay [9], in assay [3], in [4], in assay [6] and in assay [7] was > 100 µM throughout. In addition, in [8], the TGI is > 100 µM.

As for `CCN=C1C=CC(=C(c2ccc(N)cc2)c2ccc(N(CC)CC)c(C)c2)C=C1`, the GI50 in [1] is 0.344 µM; in [9], 0.345 µM; in assay [2], 0.278 µM; in assay [3], 0.204 µM; in [4] it was 0.337 µM; in assay [5], 0.205 µM. For the same compound, the concentration for 50% growth inhibition (GI50) in assay [6] was 0.317 µM; in assay [7], 0.4 µM; in assay [8], 0.329 µM. For the same compound, the TGI was 1.84 µM in assay [1]; 1.62 µM in assay [9]; 5.1 µM in assay [2]; 0.65 µM in assay [3]; 12.9 µM in [4]; 4.33 µM in [5]. Moreover, the TGI was determined as 2.07 µM in assay [6], 1.86 µM in [7] and 1.23 µM in assay [8].

In general, TGI refers to the concentration giving total growth inhibition. Low values mean more potent growth arrest, high ones less potent growth arrest. The GI50 is the concentration at which growth is held to half of that of the control.

For the origin of these results see PubChem BioAssay (NCI).
